Like-named read-outs stand apart in the source and are kept apart here.
Legend:
VIM-2 = VIM-2 (Escherichia coli, UniProt Q5U7L7); assay: MBL inhibition, FC-5 fluorescence assay, VIM-2; type: biochemical
Description: (§1) Inhibitors were tested using a panel of the clinically relevant B1 MBLs (NDM-1, VIM-1, -2 and IMP-1). Activities were assayed by monitoring the release of a fluorophore following the enzymatic breakdown of the cephalosporin FC-5 (https://pubs.acs.org/doi/abs/10.1021/jm400769b). FC-5 assays were conducted in clear bottomed 384 black well microplates (Greiner); the initial rate of reaction was assessed by monitoring the fluorescence intensity (λex=380 nm and λem=460 nm) using a Pherstar FS (BMG LabTech) plate reader. Initial rates of reaction were determined and dose-response analyses conducted in GraphPad Prism. Dose-response curves were fitted using the log(inhibitor) vs normalized response—variable slope model of GraphPad Prism 12. Each concentration point for routine screening was conducted with 4 intra-plate replicates.

NDM-1 = NDM-1 (Klebsiella pneumoniae, UniProt C7C422); assay: MBL inhibition, FC-5 fluorescence assay, NDM-1; type: biochemical
Description: as §1

IMP-1 = IMP-1 (Serratia marcescens, UniProt P52699); assay: MBL inhibition, FC-5 fluorescence assay, IMP-1; type: biochemical
Description: as §1

VIM-1 = VIM-1 (Pseudomonas aeruginosa, UniProt A0A0F7KYQ8); assay: MBL inhibition, FC-5 fluorescence assay, VIM-1; type: biochemical
Description: as §1

[1] = Plasma protein binding, equilibrium dialysis, human plasma; type: in vitro ADME; settings: pH 7.4, equilibrium dialysis (RED) 4 hours at 37° C., read-out: Plasma protein binding, fu, Human
Description: The fraction of unbound compound (fu) in plasma from human or other animal species was determined by equilibrium dialysis at 37° C. for 4 hours using the Rapid Equilibrium Dialysis (RED) device (ThermoFisher Scientific). The test compound at a concentration of 10 μM was added to plasma and dialyzed against isotonic phosphate buffer (67 mM, pH 7.4) over 4 hours at 37° C. After dialysis, compound concentrations in buffer and plasma were quantified by LC-MS/MS. In parallel the stability of the compound in plasma was determined by incubating drug-spiked plasma (10 μM) at 37° C. for 4 hours, meanwhile the control plasma sample was kept in the freezer. The concentration of the compound in both samples was quantified by LC-MS/MS (Waters Corp, Milford, MA, USA).

[2] = tested on: Acinetobacter baumannii NDM-1; assay: Antibiotic susceptibility testing (MIC), AB NDM-1; type: cell-based; settings: agar or broth dilution (CLSI/EUCAST)
Description: (§2) Antibiotic susceptibility testing was performed using the agar or broth dilution method, in line with the Clinical and Laboratory Standards Institute (CLSI) and European Committee on Antimicrobial Susceptibility Testing (EUCAST) requirements.

Escherichia coli NDM-7 = assay: Antibiotic susceptibility testing (MIC), EC NDM-7; type: cell-based; settings: agar or broth dilution (CLSI/EUCAST)
Description: as §2

Escherichia coli NDM-1 = assay: Antibiotic susceptibility testing (MIC), EC NDM-1; type: cell-based; settings: agar or broth dilution (CLSI/EUCAST)
Description: as §2

[3] = FC-5 cephalosporin substrate, ranges of obtained pIC50, read-out: pIC50 VIM-2 (converted)
[4] = FC-5 cephalosporin substrate, fluorescence, ranges of obtained pIC50, read-out: pIC50 NDM-1 (converted)
[5] = FC-5 cephalosporin substrate, fluorescence, ranges of obtained pIC50, read-out: pIC50 IMP-1 (converted)
[6] = FC-5 cephalosporin substrate, ranges of obtained pIC50, read-out: pIC50 VIM-1 (converted)

IMP-1, sequence (P52699 19-246, looked up, species assumed): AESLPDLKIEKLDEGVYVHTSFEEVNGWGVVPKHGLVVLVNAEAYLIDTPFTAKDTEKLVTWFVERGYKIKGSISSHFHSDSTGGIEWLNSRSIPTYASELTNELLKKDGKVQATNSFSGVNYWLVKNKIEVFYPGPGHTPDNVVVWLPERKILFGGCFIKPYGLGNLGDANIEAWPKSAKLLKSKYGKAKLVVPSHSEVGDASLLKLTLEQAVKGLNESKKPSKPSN
NDM-1, sequence (C7C422 29-270, looked up, species assumed): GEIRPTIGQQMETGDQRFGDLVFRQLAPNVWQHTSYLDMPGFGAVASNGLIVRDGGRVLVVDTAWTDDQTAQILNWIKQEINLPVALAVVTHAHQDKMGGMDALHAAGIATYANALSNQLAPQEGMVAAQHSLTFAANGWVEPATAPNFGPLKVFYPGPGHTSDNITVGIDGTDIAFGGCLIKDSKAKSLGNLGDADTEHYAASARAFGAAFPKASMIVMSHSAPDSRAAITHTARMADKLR

CC(c1cccc2c(-c3ccc(CS(C)(=O)=O)c(F)c3)c(C(=O)O)[nH]c12)n1cc(CNS(N)(=O)=O)nn1 (stereo not drawn) [IC-8, 3-(3-Fluoro-4-((methylsulfonyl)methyl)phenyl)-7-(1-(4-((sulfamoylamino)methyl)-1H-1,2,3-triazol-1-yl)ethyl)-1H-indole-2-carboxylic acid]
IC50 (VIM-2; [3]): 0.001 to 0.01 µM
IC50 (NDM-1; [4]): > 0.01 µM
IC50 (IMP-1; [5]): > 0.01 µM
IC50 (VIM-1; [6]): > 0.01 µM
fraction unbound at 4 h, 10 μM [1]: 0.05 to 0.25

COc1cc(-c2c(C(=O)O)[nH]c3c([C@H](C)N4CC5(CC(CN)C5)OC4=O)cccc23)ccn1 (stereo partly drawn) [IC-20, 7-((1S)-1-(2-(aminomethyl)-6-oxo-5-oxa-7-azaspiro[3.4]octan-7-yl)ethyl)-3-(2-methoxypyridin-4-yl)-1H-indole-2-carboxylic acid]
IC50 (VIM-2; [3]): 0.0001 to 0.001 µM
IC50 (NDM-1; [4]): 0.0001 to 0.001 µM
IC50 (IMP-1; [5]): > 0.01 µM
IC50 (VIM-1; [6]): 0.001 to 0.01 µM
MIC values AB NDM-1 [2]: B (B MIC values 2 ÷ 8)
MIC values EC NDM-7 (Escherichia coli NDM-7): A (A = MIC values ≤ 1)
MIC values EC NDM-1 (Escherichia coli NDM-1): A (A = MIC values ≤ 1)

COc1cc(-c2c(C(=O)O)[nH]c3c([C@H](C)N4C[C@]5(C[C@@H](CN)C5)OC4=O)cccc23)cnc1O [IC-25, 7-((S)-1-((2S,4r)-2-(aminomethyl)-6-oxo-5-oxa-7-azaspiro[3.4]octan-7-yl)ethyl)-3-(6-hydroxy-5-methoxypyridin-3-yl)-1H-indole-2-carboxylic acid]
IC50 (VIM-2; [3]): 0.0001 to 0.001 µM
IC50 (NDM-1; [4]): > 0.01 µM
IC50 (IMP-1; [5]): > 0.01 µM
IC50 (VIM-1; [6]): > 0.01 µM
MIC values AB NDM-1 [2]: C (C = MIC values > 8)
MIC values EC NDM-7 (Escherichia coli NDM-7): B (B MIC values 2 ÷ 8)
MIC values EC NDM-1 (Escherichia coli NDM-1): C (C = MIC values > 8)
fraction unbound at 4 h, 10 μM [1]: > 0.25

C[C@@H](c1cccc2c(-c3c[nH]c(=O)c(F)c3)c(C(=O)O)[nH]c12)N1C[C@]2(C[C@@H](CN)C2)OC1=O [IC-26, 7-((1S)-1-(2-(aminomethyl)-6-oxo-5-oxa-7-azaspiro[3.4]octan-7-yl)ethyl)-3-(5-fluoro-6-oxo-1,6-dihydropyridin-3-yl)-1H-indole-2-carboxylic acid]
IC50 (VIM-2; [3]): 0.0001 to 0.001 µM
IC50 (NDM-1; [4]): 0.001 to 0.01 µM
IC50 (IMP-1; [5]): > 0.01 µM
IC50 (VIM-1; [6]): > 0.01 µM
MIC values AB NDM-1 [2]: C (C = MIC values > 8)
MIC values EC NDM-7 (Escherichia coli NDM-7): A (A = MIC values ≤ 1)
MIC values EC NDM-1 (Escherichia coli NDM-1): B (B MIC values 2 ÷ 8)
fraction unbound at 4 h, 10 μM [1]: 0.05 to 0.25

COc1ncc(-c2c(C(=O)O)[nH]c3c([C@H](C)N4C[C@]5(C[C@@H](CN)C5)OC4=O)cccc23)cc1O [IC-27, (S)-7-(1-(2-(aminomethyl)-6-oxo-5-oxa-7-azaspiro[3.4]octan-7-yl)ethyl)-3-(5-hydroxy-6-methoxypyridin-3-yl)-1H-indole-2-carboxylic acid]
IC50 (VIM-2; [3]): < 0.0001 µM
IC50 (NDM-1; [4]): 0.0001 to 0.001 µM
IC50 (IMP-1; [5]): > 0.01 µM
IC50 (VIM-1; [6]): 0.001 to 0.01 µM
MIC values AB NDM-1 [2]: B (B MIC values 2 ÷ 8)
MIC values EC NDM-7 (Escherichia coli NDM-7): A (A = MIC values ≤ 1)
MIC values EC NDM-1 (Escherichia coli NDM-1): B (B MIC values 2 ÷ 8)
fraction unbound at 4 h, 10 μM [1]: 0.05 to 0.25

C[C@@H](c1cccc2c(-c3ccc(CN4CCOCC4)nc3)c(C(=O)O)[nH]c12)n1cc(CN2CC(N)C2)oc1=O [IC-52, 7-[(1S)-1-{5-[(3-aminoazetidin-1-yl)methyl]-2-oxo-2,3-dihydro-1,3-oxazol-3-yl}ethyl]-3-{6-[(morpholin-4-yl)methyl]pyridin-3-yl}-1H-indole-2-carboxylic acid]
IC50 (VIM-2; [3]): 0.001 to 0.01 µM
IC50 (NDM-1; [4]): < 0.0001 µM
IC50 (IMP-1; [5]): > 0.01 µM
IC50 (VIM-1; [6]): > 0.01 µM
MIC values AB NDM-1 [2]: C (C = MIC values > 8)
MIC values EC NDM-7 (Escherichia coli NDM-7): B (B MIC values 2 ÷ 8)
MIC values EC NDM-1 (Escherichia coli NDM-1): B (B MIC values 2 ÷ 8)

C[C@@H](c1cccc2c(-c3ccc(CS(C)(=N)=O)c(F)c3)c(C(=O)O)[nH]c12)n1cc(CN2CC(N)C2)oc1=O (stereo partly drawn) [IC-53, 7-[(1S)-1-{5-[(3-aminoazetidin-1-yl)methyl]-2-oxo-2,3-dihydro-1,3-oxazol-3-yl}ethyl]-3-(3-fluoro-4-{[imino(methyl)oxo-λ^6-sulfanyl]methyl}phenyl)-1H-indole-2-carboxylic acid]
IC50 (VIM-2; [3]): 0.001 to 0.01 µM
IC50 (NDM-1; [4]): < 0.0001 µM
IC50 (IMP-1; [5]): > 0.01 µM
IC50 (VIM-1; [6]): 0.001 to 0.01 µM
MIC values AB NDM-1 [2]: B (B MIC values 2 ÷ 8)
MIC values EC NDM-7 (Escherichia coli NDM-7): A (A = MIC values ≤ 1)
MIC values EC NDM-1 (Escherichia coli NDM-1): A (A = MIC values ≤ 1)

C[C@@H](c1cccc2c(-c3ccc(CS(C)(=O)=O)c(F)c3)c(C(=O)O)[nH]c12)N1CC2(CNC2)OC1=O [IC-65, (S)-3-(3-fluoro-4-((methylsulfonyl)methyl)phenyl)-7-(1-(6-oxo-5-oxa-2,7-diazaspiro[3.4]octan-7-yl)ethyl)-1H-indole-2-carboxylic acid]
IC50 (VIM-2; [3]): 0.0001 to 0.001 µM
IC50 (NDM-1; [4]): 0.0001 to 0.001 µM
IC50 (IMP-1; [5]): > 0.01 µM
IC50 (VIM-1; [6]): 0.001 to 0.01 µM
MIC values AB NDM-1 [2]: B (B MIC values 2 ÷ 8)
MIC values EC NDM-7 (Escherichia coli NDM-7): A (A = MIC values ≤ 1)
MIC values EC NDM-1 (Escherichia coli NDM-1): A (A = MIC values ≤ 1)

CC(NC(=O)Oc1ccc(CN)cc1)c1cccc2c(-c3ccc(CS(C)(=O)=O)c(F)c3)c(C(=O)O)[nH]c12 (stereo not drawn) [IC-101, 7-(1-(((4-(aminomethyl)phenoxy)carbonyl)amino)ethyl)-3-(3-fluoro-4-((methylsulfonyl)methyl)phenyl)-1H-indole-2-carboxylic acid]
IC50 (VIM-2; pIC50 VIM-2, FC-5 cephalosporin substrate, ranges of obtained pIC50): 0.001 to 0.01 µM
IC50 (NDM-1): 0.001 to 0.01 µM
IC50 (IMP-1): > 0.01 µM
IC50 (VIM-1; pIC50 VIM-1, FC-5 cephalosporin substrate, ranges of obtained pIC50): > 0.01 µM

CC(NC(=O)Nc1ccc(CN)cc1)c1cccc2c(-c3ccc(CS(C)(=O)=O)c(F)c3)c(C(=O)O)[nH]c12 (stereo not drawn) [IC-102, 7-(1-(3-(4-(aminomethyl)phenyl)ureido)ethyl)-3-(3-fluoro-4-((methylsulfonyl)methyl)phenyl)-1H-indole-2-carboxylic acid]
IC50 (VIM-2; [3]): 0.001 to 0.01 µM
IC50 (NDM-1; [4]): 0.001 to 0.01 µM
IC50 (IMP-1; [5]): > 0.01 µM
IC50 (VIM-1; [6]): > 0.01 µM

C/C(=C\C(=O)NCCc1c[nH]cn1)c1cccc2c(-c3ccc(CS(C)(=O)=O)c(F)c3)c(C(=O)O)[nH]c12 [IC-103, 3-[3-Fluoro-4-(methanesulfonylmethyl)phenyl]-7-[(1E)-1-{[2-(1H-imidazol-4-yl)ethyl]carbamoyl}prop-1-en-2-yl]-1H-indole-2-carboxylic acid]
IC50 (VIM-2; [3]): > 0.01 µM
IC50 (NDM-1; [4]): > 0.01 µM
IC50 (IMP-1; [5]): > 0.01 µM
IC50 (VIM-1; [6]): > 0.01 µM
MIC values AB NDM-1 [2]: C (C = MIC values > 8)
MIC values EC NDM-7 (Escherichia coli NDM-7): C (C = MIC values > 8)
MIC values EC NDM-1 (Escherichia coli NDM-1): C (C = MIC values > 8)

C/C(=C\C(=O)N1CCOCC1)c1cccc2c(-c3ccc(CS(C)(=O)=O)c(F)c3)c(C(=O)O)[nH]c12 [IC-105, 3-[3-Fluoro-4-(methanesulfonylmethyl)phenyl]-7-[(2E)-4-(morpholin-4-yl)-4-oxobut-2-en-2-yl]-1H-indole-2-carboxylic acid]
IC50 (VIM-2; [3]): > 0.01 µM
IC50 (NDM-1; [4]): > 0.01 µM
IC50 (IMP-1; [5]): > 0.01 µM
IC50 (VIM-1; [6]): > 0.01 µM
MIC values AB NDM-1 [2]: C (C = MIC values > 8)
MIC values EC NDM-7 (Escherichia coli NDM-7): C (C = MIC values > 8)
MIC values EC NDM-1 (Escherichia coli NDM-1): C (C = MIC values > 8)

C=C(CC(=O)NCCc1c[nH]cn1)c1cccc2c(-c3ccc(CS(C)(=O)=O)c(F)c3)c(C(=O)O)[nH]c12 [IC-106, 7-(4-((2-(1H-Imidazol-4(5)-yl)ethyl)amino)-4-oxobut-1-en-2-yl)-3-(3-fluoro-4-((methylsulfonyl)-methyl)phenyl)-1H-indole-2-carboxylic acid]
IC50 (VIM-2; [3]): > 0.01 µM
IC50 (NDM-1; [4]): > 0.01 µM
IC50 (IMP-1; [5]): > 0.01 µM
IC50 (VIM-1; [6]): > 0.01 µM
MIC values AB NDM-1 [2]: C (C = MIC values > 8)
MIC values EC NDM-7 (Escherichia coli NDM-7): C (C = MIC values > 8)
MIC values EC NDM-1 (Escherichia coli NDM-1): C (C = MIC values > 8)

C[C@@H](c1cccc2c(-c3ccc(CS(C)(=O)=O)c(F)c3)c(-c3nnn[nH]3)[nH]c12)N1C[C@]2(C[C@@H](CN)C2)OC1=O [IC-107, (2S,4r)-2-(Aminomethyl)-7-((S)-1-(3-(3-fluoro-4-((methylsulfonyl)methyl)phenyl)-2-(1H-tetrazole-5-yl)-1H-indol-7-yl)ethyl)-5-oxa-7-azaspiro[3.4]octan-6-one]
IC50 (VIM-2; [3]): > 0.01 µM
IC50 (NDM-1; [4]): 0.001 to 0.01 µM
IC50 (IMP-1; [5]): > 0.01 µM
IC50 (VIM-1; [6]): 0.001 to 0.01 µM

From patent US20240246913A1, “2-CARBOXYL-INDOLE INHIBITORS OF METALLO-BETA-LACTAMASES” (Oxford University Innovation Limited, priority 2021, published 2024)
